The values below are quoted from earlier work in EP0893690B1, “Detection of mycotoxins by flow-through membrane-based enzyme immunoassay” (priority 1997, dated 1999).

Series [1] relates to monoclonal anti-OA antibody (IgG1 with kappa light chains). Conditions: relative to OA; called weak.
Series [2] deals with monoclonal anti-OA antibody (IgG1 with kappa light chains). Conditions: association constant of the anti-OA antibody for its antigen OA; read-out: affinity constant (converted).

Take `C[C@@H]1Cc2ccc(C(=O)N[C@@H](Cc3ccccc3)C(=O)O)c(O)c2C(=O)O1` [ochratoxin B]: the cross-reaction in series [1] was 9.3%. Regarding `C[C@@H]1Cc2c(Cl)cc(C(=O)N[C@@H](Cc3ccccc3)C(=O)O)c(O)c2C(=O)O1` [OA, ochratoxin A], the Kd in series [2] was 0.128 nM.
